Measurements taken from patent publication US4412988A, “Hexapeptides” (Roussel Uclaf, priority 1980, dated 1983).

Test system: rats
Assay: Action against extinction of a practice of active avoiding a negative reinforcement (conditional avoidance response, deWeid apparatus)
Format: in vivo
Settings: subcutaneous, phosphate-zinc complex, percent relative to conditional responses in first extinction test before treatment; for % of conditional response in course of extinction period after 2 hours: 2 hours after injection, untreated control 60; for % of conditional response in course of extinction period after 4 hours: 4 hours after injection, untreated control 30
Protocol: The action against extinction of a practice of active avoiding a negative reinforcement was determined using an apparatus described by deWeid (Proc. Soc. Ex. Biol. Med.,) Vol. 122 ([…]) p. 28). The practice is effected in a box equipped with a 60 W lamp (conditional stimulus: CS), a mat and an electrifiable floor connected to an electric stimulus which permits the delivery of a painful shock of 75 volts (unconditional stimulus US). The conditional stimulus is present only for 5 seconds, then is associated with an unconditional stimulus just as the animal grips the mat realizing as well the avoidance response desired. The conditional response is acquired when the animal responds to the conditional stimulus.
10 tests at 60 second intervals were effected daily for 3 days and examination of the extinction of the practice realized with suppression of the unconditional stimulus is followed on the 4th day with 3 tests at 2 hour intervals with the animals presenting at least 7 conditional responses.
The compounds were injected subcutaneously as a phosphate-zinc complex before the first test of extinction of practice to group of 5 rats and the results were compared with an untreated control group of rats. The evolution of the conditional response in the course of the period of extinction of practice 2 and 4 hours after the injection of the compound is expressed as the percent of variation with respect to the number of conditional responses observed in the first test of extinction before treatment.

Substance	% of conditional response in course of extinction period after 2 hours (dose 1 μg/rat)	% of conditional response in course of extinction period after 4 hours (dose 1 μg/rat)	% of conditional response in course of extinction period after 2 hours (dose 10 μg/rat)	% of conditional response in course of extinction period after 4 hours (dose 10 μg/rat)
Cyclic disulfide (1→4) of N-[cysteinylglutamylhistidylcysteinyl-D-lysyl]-phenylalanine [Example 3]	75%	29%	70%	50%
Acetate of cyclic disulfide (1→6) of N-[cysteinylalanylalanylphenylalanyl-D-lysyl]-cysteine [Example 1]	51%	49%	76%	71%
Acetate of cyclic disulide (1→4) of N-[Cysteinylalanylanylcysteinyl-D-lysyl]-phenylalanine [Example 2]	59%	35%	71%	75%
